For series [1] the following is noted: 2 mg/kg, tail vein, C57BL/6 mice.
Procedure: (§1) In order to determine whether or not the stability of the peptide is enhanced, the in vivo half-life of the peptide was analyzed. […] The absorbance was measured at a wavelength of 450 nm using a VersaMax ELISA plate reader (Molecular Devices) and pharmacokinetics were analyzed with the phoenix WinNonlin 8.1 (Pharsight Corporation, Mountain View, CA, USA) program.
The nature of another series: in vivo. The settings on record: C57BL/6, mouse, serum, 2 mg/kg.
Another series relates to MDA-MB-231. As to the kind of experiment: OBOC bead whole-cell binding assay. The settings on record: peptide on OBOC beads, cells at 10^6 cells/ml.
A further series relates to MCF-10A, CCD-18Co. The experiment in a line: Bead whole-cell binding assay, normal cell lines. The settings on record: cell growth bead analysis.
A short description of the next series: in vitro. The settings on record: African green monkey.
A further series concerns SARS-COV-2. As to the kind of experiment: microbe, parasite or virus in culture. The settings on record: Severe acute respiratory syndrome coronavirus 2, Vero C1008, 24 h.

Procedure for MCF-10A, CCD-18Co: (§2) Before screening, beads were extensively washed with double distilled water and phosphate buffered saline (PBS; Welgene Inc., Republic of Korea). Cancer cells and normal cells were separated from the culture dish using trypsin/EDTA (Gibco) and washed with the corresponding culture medium. The cells were resuspended at 10^6 cells/ml and cultured while shaking (60 rpm) in a 37° C. humidified CO2 incubator with OBOC beads in a Petri dish. Beads bound by cells observed with the microscope had the shape of rosettes having central beads covered with one or more cell layers. Under an inverted microscope, positive beads were picked out with a pipette, and treated with guanidine-HCL (8M, 20 minutes) to remove cells and proteins from the bead surface, and secondary screening was performed with normal breast epithelial cells to detect false positive binding. Peptide sequencing was performed by selecting only beads having cell binding in both rounds.
(§3) Libraries of peptides listed in beads (50,000 to 100,000 beads were used at one time) was mixed with a human breast cancer cell line (MDA-MB-231). […] Then, these three peptides were labeled with fluorescein isothiocyanate (FITC) and the ability thereof to bind to MDA-MB-231 cells was determined.
Procedure for MDA-MB-231: as §2, §3
Procedure for in vivo: as §1

For orientation: Cmax means the highest concentration seen after dosing. As usually defined, the Tmax is the time from dosing to the highest level. For orientation: half-life means the time in which the quantity being followed falls by half. As a reminder, the AUC is concentration integrated over time. Take `CSCC[C@H](NC(=O)[C@H](C)NC(=O)CNC(=O)[C@H](Cc1c[nH]cn1)NC(=O)[C@@H](N)CCCNC(=N)N)C(=O)N[C@H](C(=O)N[C@@H](Cc1ccc(O)cc1)C(=O)N[C@@H](CC(C)C)C(=O)N[C@@H](CCCCN)C(=O)NCCOCCOCCOCCOCCOCCOCCC(=O)NCCCC[C@H](NC(=O)CCOCCOCCOCCOCCOCCOCCNC(=O)[C@H](CCCCN)NC(=O)[C@H](CC(C)C)NC(=O)[C@H](Cc1ccc(O)cc1)NC(=O)[C@@H](NC(=O)[C@H](CCSC)NC(=O)[C@H](C)NC(=O)CNC(=O)[C@H](Cc1c[nH]cn1)NC(=O)[C@@H](N)CCCNC(=N)N)C(C)C)C(=O)NCCCC[C@H](NC(=O)[C@H](CCCCNC(=O)CCOCCOCCOCCOCCOCCOCCNC(=O)[C@H](CCCCN)NC(=O)[C@H](CC(C)C)NC(=O)[C@H](Cc1ccc(O)cc1)NC(=O)[C@@H](NC(=O)[C@H](CCSC)NC(=O)[C@H](C)NC(=O)CNC(=O)[C@H](Cc1c[nH]cn1)NC(=O)[C@@H](N)CCCNC(=N)N)C(C)C)NC(=O)CCOCCOCCOCCOCCOCCOCCNC(=O)[C@H](CCCCN)NC(=O)[C@H](CC(C)C)NC(=O)[C@H](Cc1ccc(O)cc1)NC(=O)[C@@H](NC(=O)[C@H](CCSC)NC(=O)[C@H](C)NC(=O)CNC(=O)[C@H](Cc1c[nH]cn1)NC(=O)[C@@H](N)CCCNC(=N)N)C(C)C)C(=O)N[C@@H](CS)C(=O)O)C(C)C` [AGM-330t]: the “in vivo stability compared with monomeric or dimeric peptides” value in series [1] was “higher stability”. In the series “in vivo” (intravenous), the highest level (Cmax) was 1880 ± 670 ng/mL, the Tmax stood at 0.167 h and the half-life was 9.43 ± 1.21 h. This compound gave an AUC in the series “in vivo” (iv) of 21400 ± 810 ng·h/mL.
As to AVARARRRR (Synthetic construct AGM-332), the “binding to breast cancer cell line MDA-MB-231” value with MDA-MB-231 is “strong, specific, and preferential binding”. The “binding to normal cell lines MCF-10A and CCD-18Co” value with MCF-10A, CCD-18Co is “relatively non-specific and bound”.
What is called IC50 is the concentration that inhibits the measured activity by half. `Cc1cccc(C)c1OCC(=O)N[C@@H](Cc1ccccc1)[C@@H](O)C[C@H](Cc1ccccc1)NC(=O)[C@H](C(C)C)N1CCCNC1=O` [Lopinavir, lopinavir] showed a CC50 at 24 h in “in vitro” above 50 µM. The IC50 in the series on SARS-COV-2 stood at 15.5 µM.
Consider `CCC(CC)COC(=O)[C@H](C)N[P@](=O)(OC[C@H]1O[C@@](C#N)(c2ccc3c(N)ncnn23)[C@H](O)[C@@H]1O)Oc1ccccc1` [Remdesivir, remdesivir], for which, in “in vitro”, the CC50 is above 50 µM. This compound also yielded an IC50 in the series on SARS-COV-2 of 10.9 µM.
With `CCN(CC)CCCC(C)Nc1ccnc2cc(Cl)ccc12` (stereo not drawn) [Chloroquine, chloroquine], the IC50 in the series on SARS-COV-2 is 8.25 µM.

For the origin of these results see US12611438B2, “Antiviral composition comprising a nucleolin-binding peptide” (ANYGEN CO., LTD., priority 2021, dated 2026).
